Data set [1] relates to tyrosinase. The conditions noted are these: cited from earlier work; for mechanism of tyrosinase inhibition: literature [6,7].
Data set [2] is described as follows: Lipophilicity coefficient RM0 by reversed phase thin layer chromatography. The format is physicochemical. The conditions noted are these: RP-18 TLC, methanol/phosphate buffer pH=7.4. As to the method: Confirmation of the identity and purity of the obtained compounds consisted in the registration and interpretation of 1H NMR and 13C NMR spectra (the spectra were recorded using an ECZR 500 MHZ (JEOL) series FT-NMR spectrophotometer), as well as the registration and interpretation of LC-MS spectra (the spectra were recorded using Acquita UPLC system (Waters) coupled with a Waters TQD mass spectrometer). The melting point was measured using the open capillary method in the IA9300 device (Electrothermal). The lipophilicity coefficient RM0 was determined by reversed phase thin layer chromatography. In the study, aluminum plates 20×20 cm covered with modified silica gel RP-18 F254 (Merck) were used as the solid phase. The mobile phase consisted of solutions of methanol and 100 mM phosphate buffer (pH=7.4), characterized by a variable methanol content ranging from 95 to 65% (v/v). The tested compounds were dissolved in methanol to obtain solutions with a concentration of 1 mg/mL. Then, […] of the solutions prepared in this way were transferred to the starting line on aluminum plates, which were then placed in chromatographic chambers previously saturated with mobile phase vapors for at least 1 hour. All activities, including the development of chromatograms, were carried out at room temperature. After developing the chromatograms to approximately 1-2 cm from the end of the plate, the plates were dried and then the distance traveled by the tested compounds was visualized under UV light (λ=254 nm). The experiment was performed in duplicate for the specified conditions. For all samples, Rf was calculated according to the formula Rf=a/b, where a—the distance traveled by the tested compound, b—the distance traveled by the mobile phase. Then, the RM parameter was calculated for all samples according to the formula RM=log (1/Rf−1), obtaining a linear relationship between the RM values and the methanol concentration in the mobile phase. The log P coefficient was also calculated using the following computer programs: ACD/ChemSketch 2020.1.2 and ChemDraw 20.0.0.41.

The target of data set [3] is T1, tyrosinase from mushroom (Agaricus bisporus, UniProt C7FF04). Briefly: Inhibition of commercial mushroom tyrosinase, substrate L-DOPA. Type of data set: biochemical. The conditions noted are these: 500 μM; read-out: Tyrosinase inhibition with L-DOPA [%]. As to the method:
(§1) Studies on the Inhibition of the Activity of Commercial Tyrosinase from Mushroom (Sigma: T3824)
(§2) The following substrates were used for the enzymatic reaction: L-tyrosine and L-3,4-dihyroxyphenylalanine (L-DOPA). Both substrates were used in independent experiments. According to the literature, the use of L-DOPA enables the assessment of tyrosinase diphenolase activity, and L-tyrosine—the tyrosinase monophenolase activity. The determinations were performed in 96-well plates, in each well there was placed: 170 μL or 127.5 μL of 50 mM phosphate buffer (pH=6.8) with tyrosinase (1U/well or 3U/well) and 10 μL of a solution of the tested compound in DMSO (the final concentration in the well was 500 μM, 250 μM or 125 μM). The negative control used 10 u L of pure solvent (DMSO). To initiate the reaction, an appropriate substrate was added: L-tyrosine (62.5 μL of solution in phosphate buffer) or L-DOPA (20 μL of solution in phosphate buffer). After a 25-minute incubation, the absorbance was measured at 475 nm using a microplate reader. The percentage of inhibition of tyrosinase activity was calculated using the formula: [(AC−AT)/[…], where AC—is the absorbance of the negative control, AT—is the absorbance of the sample containing the tested compound.

Data set [4] concerns the target T1, tyrosinase from mushroom. The data set is described as follows: Inhibition of commercial mushroom tyrosinase, substrate L-tyrosine. The format is biochemical. To be noted: 500 μM; read-out: Tyrosinase inhibition with L-tyrosine [%]. As to the method: as §1, §2
Data set [5] concerns B16-F10 murine melanoma cell line. Briefly: Cytotoxicity (MTT) in B16-F10 murine melanoma cells. To be noted: 48 h. Type of data set: cell-based. As to the method:
Cytotoxicity Assessment in the B16-F10 Murine Melanoma Cell Line (ATTC CRL-6745)—Preliminary Safety Assessment for Subsequent Studies
In order to determine safe doses of compounds for testing the inhibition of melanogenesis in a murine melanoma cell line, cytotoxicity tests were performed. Cytotoxicity was determined by the colorimetric method using MTT ([3-(4,5-dimethyl-2-thiazolyl)-2,5-diphenyl-2H-tetrazolium bromide, Sigma M5655). For this purpose, cells were transferred to 96-well plates in an amount of 5000/well. After 24 h of culture in an incubator in F10-Ham medium with 1% FBS, the tested compounds at various concentrations were added to the wells together with fresh medium. DMSO was added to the medium in a negative control. The MTT test was performed after further culture for 48 h. Then the medium was removed and the formed formazan crystals were dissolved in DMSO. The absorbance was measured at 570 nm in a plate reader and the result was compared to the control (DMSO), which was 100%. The percentage of viability was calculated using the formula: [AT/AC*100], where AT is the absorbance of the test sample, AC—absorbance of the control sample.

In the next data set the test system is S. typhimurium TA98. Briefly: Ames microplate test, TA98. Type of data set: cell-based, Salmonella typhimurium. As for the experimental part: (§3) Bacteria were grown overnight in growth medium.
Another data set has as its system S. typhimurium TA100. Briefly: Ames microplate test, TA100. Type of data set: cell-based, Salmonella typhimurium.
The next data set relates to S. typhimurium TA1537. The data set is described as follows: Ames microplate test, TA1537. Type of data set: cell-based, Salmonella typhimurium. As for the experimental part: as §3
The subject of another data set is CHO-K1 cells. The data set is described as follows: Cytotoxicity (MTT) in CHO-K1 cells before the micronucleus test. Type of data set: cell-based, Chinese hamster. The conditions noted are these: 24 hours. As to the method:
The assay was performed using a Chinese hamster ovary cell line (CHO-K1) purchased from the American Type Culture Collection (ATCC). The cells were cultured in F-12K medium with the addition of 10% fetal bovine serum (FBS) and antibiotics (streptomycin/penicillin) in an incubator at 37° C. and 5% CO2 concentration). Before the actual micronucleus test, a cytotoxicity assessment was performed to ensure that the actual test was performed only at safe concentrations. For this purpose, cells were transferred to 96-well plates and incubated with the tested compounds for 24 hours. After this time, the MTT test was performed and cell viability was assessed in comparison to the control group (cells cultured with DMSO at the same concentration as in the case of the tested samples).

The next data set relates to S. typhimurium TA1535. The data set is described as follows: Ames microplate test, TA1535.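 Further: bacteria exposed 90 min at 37 °C in exposure medium, then 48 h in indicator medium in 384-well plates, yellow (revertant) wells counted per condition.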
A further data set has as its system E. coli WP2. The data set is described as follows: Ames microplate test, E. coli WP2.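 Further: bacteria exposed to compound for 90 min at 37 °C in 24-well plates, then transferred with indicator medium to 384-well plates and incubated 48 h before yellow well counting.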
Data set [6] concerns tyrosinase. The conditions noted are these: literature [11], cited from earlier work.
Where [7] appears, read: literature [7], read-out: IC50, tyrosinase inhibition.

Like-named read-outs stand apart in the source and are kept apart here.

T1 sequence (C7FF04 2-392): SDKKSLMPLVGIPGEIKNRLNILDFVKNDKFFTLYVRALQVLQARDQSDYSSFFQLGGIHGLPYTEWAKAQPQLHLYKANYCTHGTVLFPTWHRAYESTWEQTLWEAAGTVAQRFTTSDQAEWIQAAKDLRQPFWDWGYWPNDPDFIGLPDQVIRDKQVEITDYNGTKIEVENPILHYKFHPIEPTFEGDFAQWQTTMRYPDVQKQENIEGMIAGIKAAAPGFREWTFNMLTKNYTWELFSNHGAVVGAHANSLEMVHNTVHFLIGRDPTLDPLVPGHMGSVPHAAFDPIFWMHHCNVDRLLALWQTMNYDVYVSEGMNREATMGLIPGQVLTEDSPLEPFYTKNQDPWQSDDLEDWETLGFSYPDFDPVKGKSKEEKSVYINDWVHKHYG
T1 sequence (G1K3P4 entry or part of it, further chain): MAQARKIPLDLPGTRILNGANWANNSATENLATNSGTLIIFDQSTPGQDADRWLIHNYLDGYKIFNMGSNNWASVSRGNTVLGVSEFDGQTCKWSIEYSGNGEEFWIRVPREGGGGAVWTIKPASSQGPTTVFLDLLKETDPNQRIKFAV

As to `O=C(O)C=Cc1ccc(Cl)cc1Cl` [2,4-dichlorocinnamic acid], the “mechanism of tyrosinase inhibition” value in the data set on tyrosinase [1] is recorded as “reversible non-competitive mechanism”. The IC50 on tyrosinase [1] (setting [7]) was 295 µM.
Regarding `O=C(O)C=Cc1ccccc1Cl` [2-Chlorocinnamic acid], the “mechanism of tyrosinase inhibition” value in the data set with tyrosinase [1] is recorded as “reversible non-competitive mechanism”. In addition, the IC50 at tyrosinase [1] (setting [7]) was 765 µM.
Turning to `COc1ccc(C=CC(=O)O)cc1` [4-methoxycinnamic acid], the IC50 at tyrosinase [1] (literature [6], read-out: IC50, tyrosinase diphenolase activity) was 420 µM.
`O=C(O)C=Cc1ccccc1` [Cinnamic acid]: in the data set with tyrosinase [1], the “mechanism of tyrosinase inhibition” value is recorded as “non-competitive inhibitor”.
Regarding `CCC(O)CNC(=O)/C=C/c1ccc(Cl)cc1` (centres unmarked) [Compound A-67, (2E)-3-(4-chlorophenyl)-N-(2-hydroxybutyl)prop-2-enamide], in data set [2], the RM0 is reported as 2.46. Besides, the values for the inhibition at 500 µM on tyrosinase from mushroom [3] and at tyrosinase from mushroom [4] were 60.8 ± 1.99% and 79.2 ± 1.2%, respectively. In addition, the “Cytotoxicity study in B16F10 cells, % viability” value in data set [5] (150 μM) amounted to 73.6%; in data set [5] (200 μM), 87.8%; in data set [5] (250 μM), 84.4%. Besides, the “Increase in the number of yellow wells compared to the reference level, TA98” value is recorded as 0.31 with S. typhimurium TA98 (0.5 mM, + S9); 0.27 in the data set on S. typhimurium TA98 (0.5 mM, without S9); 0.94 with S. typhimurium TA98 (1.0 mM, + S9); 1.07 with S. typhimurium TA98 (1.0 mM, without S9); 1.04 with S. typhimurium TA98 (2.0 mM, + S9); 1.07 with S. typhimurium TA98 (2.0 mM, without S9). Moreover, the “Increase in the number of yellow wells compared to the reference level, TA100” value with S. typhimurium TA100 (0.5 mM, + S9) is 0.78; in the data set with S. typhimurium TA100 (0.5 mM, without S9) it was 1.53; with S. typhimurium TA100 (1.0 mM, + S9) it was 0.64; with S. typhimurium TA100 (1.0 mM, without S9), 0.93; with S. typhimurium TA100 (2.0 mM, + S9) it was 0.31; in the data set with S. typhimurium TA100 (2.0 mM, without S9), 0.80. Further, the “Increase in the number of yellow wells compared to the reference level, TA1537” value in the data set with S. typhimurium TA1537 (0.5 mM, + S9) is recorded as 1.00; in the data set with S. typhimurium TA1537 (0.5 mM, without S9) it was 0.00; in the data set on S. typhimurium TA1537 (1.0 mM, + S9), 1.33; with S. typhimurium TA1537 (1.0 mM, without S9), 0.18; with S. typhimurium TA1537 (2.0 mM, + S9), 0.00; in the data set with S. typhimurium TA1537 (2.0 mM, without S9), 0.82. The “% Viability [mean], CHO-K1” value in the data set with CHO-K1 cells (100 μM) was determined as 96.0%; in the data set on CHO-K1 cells (150 μM), 90.3%; in the data set on CHO-K1 cells (200 μM), 84.0%. In addition, the “Increase in the number of yellow wells compared to the reference level, TA1535” value is on record as 0.27 in the data set on S. typhimurium TA1535 (0.5 mM, + S9); 0.30 in the data set with S. typhimurium TA1535 (0.5 mM, without S9); 0.54 in the data set with S. typhimurium TA1535 (1.0 mM, + S9); 0.45 in the data set with S. typhimurium TA1535 (1.0 mM, without S9); 0.13 in the data set on S. typhimurium TA1535 (2.0 mM, + S9); 1.04 in the data set on S. typhimurium TA1535 (2.0 mM, without S9). The “Increase in the number of yellow wells compared to the reference level, E. coli WP2” value in the data set on E. coli WP2 (0.5 mM, + S9) is 0.83; in the data set on E. coli WP2 (0.5 mM, without S9), 0.50; with E. coli WP2 (1.0 mM, + S9), 0.42; in the data set on E. coli WP2 (1.0 mM, without S9), 1.00; with E. coli WP2 (2.0 mM, + S9) it was 1.42; in the data set with E. coli WP2 (2.0 mM, without S9), 0.83.
Compound `CC(CO)NC(=O)/C=C/c1ccc(Cl)cc1` (centres unmarked) [Compound A-102, (2E)-3-(4-chlorophenyl)-N-(1-hydroxypropan-2-yl)prop-2-enamide] gave an RM0 in data set [2] of 2.12. Moreover, the inhibition at 500 µM at tyrosinase from mushroom [3] came out at 53 ± 1.99%; on tyrosinase from mushroom [4], 75.5 ± 1.8%. Also, the results for the “Cytotoxicity study in B16F10 cells, % viability” value in [5] (150 μM), in [5] (200 μM) and in [5] (250 μM) were 80.6%, 83.5% and 75.7%, respectively. The “Increase in the number of yellow wells compared to the reference level, TA98” value with S. typhimurium TA98 (0.5 mM, without S9) was 0.24; in the data set on S. typhimurium TA98 (1.0 mM, without S9), 0.24; in the data set with S. typhimurium TA98 (2.0 mM, without S9), 0.35. Moreover, the “Increase in the number of yellow wells compared to the reference level, TA100” value with S. typhimurium TA100 (0.5 mM, without S9) amounted to 1.08; with S. typhimurium TA100 (1.0 mM, without S9), 0.75; in the data set on S. typhimurium TA100 (2.0 mM, without S9) it was 0.92. Moreover, the “Increase in the number of yellow wells compared to the reference level, TA1537” value is 0.33 with S. typhimurium TA1537 (0.5 mM, without S9); 0.00 in the data set on S. typhimurium TA1537 (1.0 mM, without S9); 1.00 with S. typhimurium TA1537 (2.0 mM, without S9). The “% Viability [mean], CHO-K1” value was 84.7% with CHO-K1 cells (100 μM), 69.9% in the data set with CHO-K1 cells (150 μM) and 87.2% with CHO-K1 cells (200 μM). Further, the “Increase in the number of yellow wells compared to the reference level, TA1535” value in the data set with S. typhimurium TA1535 (0.5 mM, without S9) stood at 0.55; in the data set on S. typhimurium TA1535 (1.0 mM, without S9), 0.14; in the data set with S. typhimurium TA1535 (2.0 mM, without S9), 0.89. The “Increase in the number of yellow wells compared to the reference level, E. coli WP2” value in the data set with E. coli WP2 (0.5 mM, without S9) was found to be 0.48; with E. coli WP2 (1.0 mM, without S9), 1.03; in the data set on E. coli WP2 (2.0 mM, without S9) it was 0.79.
As to `CCOC(=O)[C@H](Cc1ccccc1)NC(=O)/C=C/c1ccc(O)c(OC)c1` [N-[3-(4-hydroxy-3-methoxyphenyl)-1-oxo-2-propen-1-yl]-L-phenylalanine ethyl ester], in the data set on tyrosinase [6], the “type of tyrosinase inhibition” value is recorded as “mixed type of inhibition”. The IC50 on tyrosinase [6] (read-out: IC50, tyrosinase inhibition) was 0.185 ± 0.005 µM.

What is called IC50 is the midpoint of a concentration-inhibition curve. As a reminder, the inhibition is the relative decrease from the control value, in per cent.

(Values after patent US20250263376A1, “(E)-N-CINNAMOYLAMINOALKANOLS WITH MELANOGENESIS INHIBITORY ACTIVITY” (Uniwersytet Jagiellonski, priority 2024, published 2025).)
